Experiments:
Mus musculus [1] = test: Tested for rate of horizontal activity during a 30-min period after administration of compound at a concentration of 10 mg/kg; assay type: functional
Mus musculus [2] = test: Tested for rate of horizontal activity during a 30-min period after administration of compound at a concentration of 3 mg/kg; assay type: functional
Mus musculus [3] = test: Tested for rate of horizontal activity during a 30-min period after administration of compound at a concentration of 100 mg/kg; assay type: functional
Mus musculus [4] = test: Tested for rate of horizontal activity during a 30-min period after administration of compound at a concentration of 30 mg/kg; assay type: functional
Mus musculus [5] = test: Tested for rate of horizontal activity during a 30-min period after administration of compound at a concentration of 50 mg/kg; assay type: functional
Mus musculus [6] = test: Tested for rate of horizontal activity during a 30-min period after administration of compound at a concentration of 5 mg/kg; assay type: functional
[7] = system: Monoamine transporters; Norepinephrine & dopamine (Rattus norvegicus); test: Selectivity ratio of DAT to that of NET receptor
[8] = biological target: Sodium-dependent serotonin transporter (Rattus norvegicus, UniProt P31652); test: Binding affinity at Serotonin transporter using [3H]citalopram as radioligand from rat brain
Sequence of Sodium-dependent serotonin transporter (P31652 whole entry): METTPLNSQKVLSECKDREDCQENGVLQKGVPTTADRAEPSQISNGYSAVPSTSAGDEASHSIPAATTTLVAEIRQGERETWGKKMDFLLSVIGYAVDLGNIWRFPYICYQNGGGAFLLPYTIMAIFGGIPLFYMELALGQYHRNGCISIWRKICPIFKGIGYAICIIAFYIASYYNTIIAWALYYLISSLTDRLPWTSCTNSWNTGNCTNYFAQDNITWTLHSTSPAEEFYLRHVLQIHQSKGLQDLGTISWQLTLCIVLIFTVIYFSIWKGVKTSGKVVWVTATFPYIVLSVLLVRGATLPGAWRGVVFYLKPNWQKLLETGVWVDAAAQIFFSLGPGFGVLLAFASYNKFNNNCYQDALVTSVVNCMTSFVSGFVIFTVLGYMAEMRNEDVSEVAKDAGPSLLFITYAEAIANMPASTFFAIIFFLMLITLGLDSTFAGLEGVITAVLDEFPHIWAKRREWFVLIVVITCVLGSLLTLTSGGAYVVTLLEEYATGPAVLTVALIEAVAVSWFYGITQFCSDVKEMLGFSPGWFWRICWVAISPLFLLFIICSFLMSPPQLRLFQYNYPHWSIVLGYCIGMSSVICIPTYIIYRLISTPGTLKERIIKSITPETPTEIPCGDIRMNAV

[9] = biological target: Norepinephrine transporter (Rattus norvegicus, UniProt Q9WTR4); test: Binding affinity at norepinephrine transporter using [3H]nisoxetine as radioligand from rat brain
Sequence of Norepinephrine transporter (Q9WTR4 whole entry): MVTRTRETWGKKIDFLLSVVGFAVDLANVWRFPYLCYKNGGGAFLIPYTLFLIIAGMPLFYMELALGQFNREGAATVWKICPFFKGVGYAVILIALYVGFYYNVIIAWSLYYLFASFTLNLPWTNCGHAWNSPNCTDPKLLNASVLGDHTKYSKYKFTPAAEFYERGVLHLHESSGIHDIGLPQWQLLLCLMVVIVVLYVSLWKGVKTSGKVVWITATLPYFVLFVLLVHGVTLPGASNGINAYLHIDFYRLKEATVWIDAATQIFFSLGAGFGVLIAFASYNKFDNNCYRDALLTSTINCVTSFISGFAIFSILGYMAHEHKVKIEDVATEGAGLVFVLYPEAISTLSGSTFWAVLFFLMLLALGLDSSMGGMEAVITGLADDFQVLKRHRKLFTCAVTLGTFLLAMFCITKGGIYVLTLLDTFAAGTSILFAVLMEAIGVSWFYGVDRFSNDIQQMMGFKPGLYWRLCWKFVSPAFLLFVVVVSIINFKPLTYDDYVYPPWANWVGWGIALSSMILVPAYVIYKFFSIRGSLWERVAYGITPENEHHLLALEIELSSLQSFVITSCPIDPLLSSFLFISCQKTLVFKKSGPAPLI

[10] = system: Monoamine transporters; serotonin & dopamine (Rattus norvegicus); test: Selectivity ratio for DAT to SERT evaluated
[11] = biological target: Sodium-dependent dopamine transporter (Rattus norvegicus, UniProt P23977); test: Binding affinity at Dopamine transporter by displacing [3H]WIN-35428 from rat caudate putamen; assay type: tissue-based
Sequence of Sodium-dependent dopamine transporter (P23977 whole entry): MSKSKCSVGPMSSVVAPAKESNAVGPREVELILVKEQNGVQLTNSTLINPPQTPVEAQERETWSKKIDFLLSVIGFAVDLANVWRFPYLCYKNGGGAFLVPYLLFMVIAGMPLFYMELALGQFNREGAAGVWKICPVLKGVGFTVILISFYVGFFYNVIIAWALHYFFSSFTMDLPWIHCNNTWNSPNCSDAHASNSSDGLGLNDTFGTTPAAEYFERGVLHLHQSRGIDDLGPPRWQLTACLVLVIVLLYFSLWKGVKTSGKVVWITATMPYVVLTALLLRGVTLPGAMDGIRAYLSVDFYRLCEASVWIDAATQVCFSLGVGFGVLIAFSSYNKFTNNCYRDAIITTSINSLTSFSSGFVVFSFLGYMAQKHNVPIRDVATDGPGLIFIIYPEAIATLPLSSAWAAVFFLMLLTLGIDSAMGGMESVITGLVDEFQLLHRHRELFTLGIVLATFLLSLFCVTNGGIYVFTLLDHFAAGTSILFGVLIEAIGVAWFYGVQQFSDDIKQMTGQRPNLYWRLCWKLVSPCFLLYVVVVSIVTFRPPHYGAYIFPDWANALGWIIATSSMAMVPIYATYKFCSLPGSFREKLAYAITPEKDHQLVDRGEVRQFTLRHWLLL

[12] = Selectivity ratio for DAT to SERT evaluated; assay type: functional
[13] = Selectivity ratio of DAT to that of NET receptor; assay type: functional
Mus musculus [14] = test: Tested for rate of horizontal activity during a 30-min period after administration of compound at a concentration of 0.1 mg/kg; assay type: functional
Mus musculus [15] = test: Tested for rate of horizontal activity during a 30-min period after administration of compound at a concentration of 1.0 mg/kg; assay type: functional
Mus musculus [16] = test: Tested for rate of horizontal activity during a 30-min period after administration of compound at a concentration of 0.3 mg/kg; assay type: functional

| Structure (SMILES) | Horizontal activity (Mus musculus [1]) [Counts min-1] | Horizontal activity (Mus musculus [2]) [Counts min-1] | Horizontal activity (Mus musculus [3]) [Counts min-1] | Horizontal activity (Mus musculus [4]) [Counts min-1] | Ratio [7] | Ki [8] [nM] | Ki [9] [nM] | Ratio [10] | Ki [11] [nM] | also measured |
| --- | --- | --- | --- | --- | --- | --- | --- | --- | --- | --- |
| Fc1ccc(C(OCCN2CCN(CCCc3ccccc3)CC2)c2ccc(F)cc2)cc1 [VANOXERINE] | 300 | 175 | 175 | 400 | – | – | – | – | – | – |
| COC(=O)[C@@H]1C2CC[C@@H](C[C@@H]1OC(=O)c1ccccc1)N2C (single isomer, unassigned) [COCAINE] | 500 | – | – | 600 | – | – | – | – | – | Horizontal activity (Mus musculus [5]): 550 Counts min-1; Horizontal activity (Mus musculus [6]): 300 Counts min-1 |
| C[C@@H]1CN(CCCN(c2ccccc2)c2ccccc2)C[C@@H](C)N1 | – | – | – | – | 8 | 70900 | 6810 | 87 | 813 | – |
| C[C@@H]1CN(CCCN(c2ccccc2)c2ccccc2)C[C@@H](C)N1CCc1ccc(Cl)c(Cl)c1 | – | – | – | – | – | 5010 | > 30000 | – | 261 | Ratio [12]: 19; Ratio [13]: > 115 |
| C[C@@H]1CN(CCCN(c2ccccc2)c2ccccc2)C[C@@H](C)N1CCCc1ccccc1 | – | – | – | – | 60 | 1220 | 3640 | 20 | 61 | – |
| C[C@@H]1CN(CCCN(c2ccc(F)cc2)c2ccc(F)cc2)C[C@@H](C)N1CCCc1ccccc1 | ~250 | ~240 | ~50 | ~215 | 60 | 2130 | 1020 | 121 | 17.6 | Horizontal activity (Mus musculus [14]): ~200 Counts min-1; Horizontal activity (Mus musculus [15]): ~250 Counts min-1; Horizontal activity (Mus musculus [16]): ~210 Counts min-1 |
| C[C@@H]1CN(CCCN(c2ccc(F)cc2)c2ccc(F)cc2)C[C@@H](C)N1 | – | – | – | – | 203 | 13100 | 16900 | 158 | 83.2 | – |
| C[C@@H]1CN(CCCN(c2ccc(F)cc2)c2ccc(F)cc2)C[C@@H](C)N1CCc1ccc(Cl)c(Cl)c1 | – | – | – | – | – | 4300 | > 100000 | – | 131 | – |
| CC1CN(CCCn2c3ccccc3c3ccccc32)C[C@@H](C)N1 (single isomer, unassigned) [RIMCAZOLE] | ~250 | ~175 | ~0 | ~220 | – | 1710 | – | – | – | – |
